GI50 and TGI data for 13 compounds are collected here from PubChem BioAssay (NCI).

Where “and” joins values, the source holds several entries; their conditions need not be identical. Equal entries are not always repeated.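 Cells were grown in 96-well plates and exposed to each compound for 48 hours at five concentrations; endpoints were interpolated linearly between bracketing concentrations, or set to the highest concentration if not reached. Here, GI50 denotes the concentration required for 50% inhibition of growth. TGI: total growth inhibition.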

Test systems include MOLT-4 leukemia; A498 renal; RXF 393 renal; OVCAR-4 ovarian; SK-OV-3 ovarian; HL-60(TB) leukemia; ACHN renal; M14 melanoma; NCI-H23 lung; 786-0 renal.
Test in all cases: NCI-60 cell line screen, 48 h

For `COc1cc2nc3cc([N+](=O)[O-])ccc3c(NCCNCC(C)O)c2cc1OC` (stereo not given), the GI50 with MOLT-4 leukemia was 0.353 µM; in the assay on A498 renal, 1.37 µM; in the assay on RXF 393 renal it was 0.641 µM; with OVCAR-4 ovarian, 0.886 µM; in the assay with SK-OV-3 ovarian, 1.98 µM; in the assay on HL-60(TB) leukemia, 2.52 µM. In addition, the GI50 in the assay with ACHN renal is 0.614 µM; in the assay on M14 melanoma it was 1.25 µM; in the assay with NCI-H23 lung it was 0.554 µM; in the assay on 786-0 renal it was 1.23 µM. Further, the TGI in the assay on MOLT-4 leukemia was 6.21 µM; in the assay on A498 renal it was 3.02 µM; in the assay with RXF 393 renal, 2.34 µM; with OVCAR-4 ovarian, 2.92 µM; in the assay on SK-OV-3 ovarian, 5.35 µM; in the assay on HL-60(TB) leukemia it was 6.66 µM. The TGI in the assay with ACHN renal was 3.93 µM; with M14 melanoma it was 2.96 µM; with NCI-H23 lung, 3.07 µM; in the assay with 786-0 renal it was 3.6 µM.
For `CC1Cc2ccccc2N1C(=O)Cc1nc(N2CCOCC2)cc(=O)[nH]1` (stereo not given), the GI50 was 15.8 µM and 27.5 µM with MOLT-4 leukemia; 0.026 µM and 0.0929 µM in the assay with A498 renal; 0.277 µM and 1.4 µM in the assay with RXF 393 renal; 28.1 µM and 31.4 µM in the assay with OVCAR-4 ovarian; 4.9 µM and 13.3 µM in the assay on SK-OV-3 ovarian; 20.7 µM and 25.5 µM in the assay with HL-60(TB) leukemia. Besides, the GI50 was 3.94 µM and 8.73 µM with ACHN renal; 13.8 µM and 27 µM in the assay on M14 melanoma; 48.7 µM and > 91.5 µM in the assay on NCI-H23 lung; 0.639 µM and 3.19 µM in the assay with 786-0 renal. Also, the TGI was more than 100 µM in the assay on MOLT-4 leukemia; 0.189 µM and 0.559 µM in the assay with A498 renal; 8.17 µM and 16.2 µM in the assay with RXF 393 renal; more than 100 µM in the assay with OVCAR-4 ovarian; more than 100 µM with SK-OV-3 ovarian; more than 100 µM in the assay on HL-60(TB) leukemia. The TGI was more than 100 µM with ACHN renal; more than 100 µM with M14 melanoma; more than 100 µM in the assay on NCI-H23 lung; > 100 µM and 98.4 µM in the assay with 786-0 renal.
For `CC(C)=NNC(=S)NC12CC3CC(CC(C3)C1)C2`, the TGI in the assay with MOLT-4 leukemia, in the assay on A498 renal, in the assay on RXF 393 renal, in the assay on OVCAR-4 ovarian, in the assay on SK-OV-3 ovarian and with HL-60(TB) leukemia was more than 100 µM throughout. Further, the TGI in the assay with ACHN renal, in the assay on M14 melanoma, with NCI-H23 lung and in the assay on 786-0 renal was more than 100 µM each time.
For the compound `Cc1ccc(OCCOCCOCCOCCOCCOc2ccc(C)n(O)c2=S)c(=S)n1O`, the GI50 is 0.0422 µM in the assay with MOLT-4 leukemia; 0.149 µM with A498 renal; 0.327 µM in the assay with RXF 393 renal; 0.0339 µM in the assay with OVCAR-4 ovarian; 0.0583 µM in the assay on SK-OV-3 ovarian; 0.0441 µM in the assay on HL-60(TB) leukemia. Also, the GI50 in the assay on ACHN renal was 0.0494 µM; in the assay on M14 melanoma it was 0.0619 µM; in the assay on NCI-H23 lung it was 0.08 µM; in the assay on 786-0 renal it was 0.0952 µM. Also, the TGI in the assay on MOLT-4 leukemia was more than 100 µM; in the assay with A498 renal it was 3.88 µM; in the assay with RXF 393 renal it was 17.1 µM; in the assay on OVCAR-4 ovarian, 49.5 µM; in the assay on SK-OV-3 ovarian it was more than 48 µM; in the assay with HL-60(TB) leukemia, 0.638 µM. Moreover, the TGI in the assay on ACHN renal is more than 87.2 µM; with M14 melanoma, 0.43 µM; with NCI-H23 lung it was more than 100 µM; in the assay on 786-0 renal, more than 100 µM.
`Cc1[nH]nc2ncc(C(=O)N3CCC[C@H]3c3ccc(Cl)cc3)cc12`: the GI50 with MOLT-4 leukemia was 72.1 µM; in the assay with A498 renal it was 32.5 µM; in the assay on RXF 393 renal, 39.5 µM; in the assay on OVCAR-4 ovarian, 96.6 µM; in the assay with SK-OV-3 ovarian it was more than 100 µM; with HL-60(TB) leukemia it was 32.6 µM. The GI50 was 36.3 µM with ACHN renal, more than 100 µM in the assay with M14 melanoma, more than 100 µM with NCI-H23 lung and 47.7 µM in the assay on 786-0 renal. For the same compound, the TGI was more than 100 µM in the assay with MOLT-4 leukemia; more than 100 µM with A498 renal; more than 100 µM with RXF 393 renal; more than 100 µM in the assay with OVCAR-4 ovarian; more than 100 µM with SK-OV-3 ovarian; 90.7 µM with HL-60(TB) leukemia. Also, the TGI in the assay with ACHN renal, with M14 melanoma, in the assay with NCI-H23 lung and in the assay with 786-0 renal was more than 100 µM each time.
Regarding `Cc1ccc(C2=Nc3ccccc3S(=O)C(c3ccc4c(c3)OCO4)C2)cc1` (stereo not given), the TGI in the assay with MOLT-4 leukemia was more than 100 µM; with A498 renal, 51.7 µM; with RXF 393 renal, 32.1 µM; in the assay with OVCAR-4 ovarian, more than 100 µM; in the assay on SK-OV-3 ovarian, 91.3 µM; in the assay on HL-60(TB) leukemia, 59.1 µM. Moreover, the TGI in the assay on ACHN renal is 82.4 µM; in the assay with M14 melanoma, 38 µM; in the assay with NCI-H23 lung, 48.9 µM; in the assay with 786-0 renal it was 44 µM.
Take `c1ccc2c(CNCCCCCCCCNCc3cccc4ccccc34)cccc2c1`: the TGI is 9.64 µM in the assay on MOLT-4 leukemia; 28.4 µM with A498 renal; 3.13 µM with RXF 393 renal; 5.28 µM in the assay with OVCAR-4 ovarian; 30.9 µM in the assay with SK-OV-3 ovarian; 4.64 µM in the assay on HL-60(TB) leukemia. Moreover, the TGI with ACHN renal is 8.36 µM; in the assay with M14 melanoma, 3.18 µM; in the assay with NCI-H23 lung it was 14.8 µM; with 786-0 renal, 3.31 µM.
Consider `Cn1c(=O)c(Oc2ccc(F)cc2F)cc2cnc(NC3CCOCC3)nc21`, for which the GI50 with MOLT-4 leukemia is more than 25 µM; in the assay on A498 renal, 5 µM; in the assay on RXF 393 renal, 24.3 µM; in the assay with OVCAR-4 ovarian, more than 25 µM; with SK-OV-3 ovarian it was more than 25 µM; in the assay with HL-60(TB) leukemia it was more than 25 µM. The GI50 in the assay with ACHN renal, with M14 melanoma, with NCI-H23 lung and with 786-0 renal was more than 25 µM throughout. Besides, the TGI in the assay with MOLT-4 leukemia, in the assay on A498 renal, in the assay with RXF 393 renal, in the assay with OVCAR-4 ovarian, with SK-OV-3 ovarian and in the assay on HL-60(TB) leukemia was more than 25 µM in each case. For the same compound, the TGI in the assay with ACHN renal, in the assay on M14 melanoma, with NCI-H23 lung and with 786-0 renal was more than 25 µM throughout.
As to `CN(C)C=Nc1c(I)cc(I)c(CCC(=O)O)c1I`, the GI50 with MOLT-4 leukemia is more than 100 µM; in the assay with A498 renal it was 81.6 µM; with RXF 393 renal it was more than 100 µM; in the assay on OVCAR-4 ovarian, more than 100 µM; with SK-OV-3 ovarian it was more than 100 µM; in the assay on HL-60(TB) leukemia, 82.9 µM. Besides, the GI50 in the assay with ACHN renal, in the assay with M14 melanoma, in the assay on NCI-H23 lung and in the assay on 786-0 renal was more than 100 µM throughout. The TGI with MOLT-4 leukemia, in the assay with A498 renal, with RXF 393 renal, in the assay with OVCAR-4 ovarian, in the assay with SK-OV-3 ovarian and in the assay with HL-60(TB) leukemia was more than 100 µM each time. Also, the TGI in the assay on ACHN renal, in the assay on M14 melanoma, in the assay on NCI-H23 lung and in the assay with 786-0 renal was more than 100 µM throughout.
`N#CC1=C(N)Oc2c(sc3c(Br)cccc23)C1c1ccc(Cl)cc1` (stereo not given): the GI50 with MOLT-4 leukemia is 0.625 µM; in the assay with A498 renal, 0.47 µM; in the assay with RXF 393 renal, 0.553 µM; in the assay with OVCAR-4 ovarian it was 1.13 µM; in the assay on SK-OV-3 ovarian, 0.464 µM; in the assay on HL-60(TB) leukemia, 0.357 µM. The GI50 with ACHN renal is 0.531 µM; in the assay with M14 melanoma, 0.45 µM; in the assay on NCI-H23 lung it was 0.821 µM; with 786-0 renal, 0.663 µM. Besides, the TGI in the assay with MOLT-4 leukemia is 6.49 µM; in the assay with A498 renal it was 11 µM; in the assay with RXF 393 renal it was 3.01 µM; in the assay on OVCAR-4 ovarian, 16.1 µM; in the assay with SK-OV-3 ovarian, 11.6 µM; with HL-60(TB) leukemia, 1.88 µM. Further, the TGI in the assay on ACHN renal amounted to 2.46 µM; in the assay on M14 melanoma it was 2.65 µM; in the assay on NCI-H23 lung, 4.86 µM; in the assay on 786-0 renal, 2.71 µM.
In the case of `CN(/N=C\c1ccnc2ccccc12)c1ccccc1`, the TGI is more than 100 µM with MOLT-4 leukemia; 54.6 µM in the assay on A498 renal; 77.3 µM in the assay on RXF 393 renal; 89.4 µM in the assay on OVCAR-4 ovarian; 66 µM with SK-OV-3 ovarian; 39.2 µM in the assay with HL-60(TB) leukemia. In addition, the TGI in the assay with ACHN renal is 95.8 µM; with M14 melanoma, 38.2 µM; with NCI-H23 lung, 48.6 µM; in the assay with 786-0 renal, 37.7 µM.
As to `O=[N+]([O-])c1ccc2c(c1)C(c1ccccc1Cl)=Nc1c(n[nH]c1-c1cccnc1)N2`, the GI50 was more than 25 µM in the assay on MOLT-4 leukemia; more than 20.3 µM with A498 renal; more than 25 µM in the assay on RXF 393 renal; more than 19.8 µM in the assay on OVCAR-4 ovarian; more than 25 µM in the assay with SK-OV-3 ovarian; more than 25 µM in the assay with HL-60(TB) leukemia. The GI50 with ACHN renal, in the assay with M14 melanoma, in the assay on NCI-H23 lung and in the assay on 786-0 renal was more than 25 µM throughout. Further, the TGI in the assay with MOLT-4 leukemia, in the assay on A498 renal, in the assay with RXF 393 renal, with OVCAR-4 ovarian, in the assay with SK-OV-3 ovarian and with HL-60(TB) leukemia was more than 25 µM in each case. Further, the TGI in the assay with ACHN renal, in the assay on M14 melanoma, in the assay on NCI-H23 lung and with 786-0 renal was more than 25 µM in each case.
For `COc1ccc(NC(=O)c2ccc(NC3=C(Cl)C(=O)N(Cc4ccccc4)C3=O)cc2)c(OC)c1`, the GI50 with MOLT-4 leukemia was 9.94 µM; in the assay with A498 renal it was 61.1 µM; in the assay on RXF 393 renal, 50.2 µM; in the assay with OVCAR-4 ovarian it was 61.8 µM; in the assay on SK-OV-3 ovarian, more than 100 µM; in the assay with HL-60(TB) leukemia it was 13.2 µM. For the same compound, the GI50 was 36 µM in the assay on ACHN renal, 18.5 µM in the assay with M14 melanoma, 14.3 µM in the assay with NCI-H23 lung and 23.3 µM with 786-0 renal. The TGI in the assay on MOLT-4 leukemia is 36.2 µM; in the assay with A498 renal, more than 100 µM; with RXF 393 renal it was more than 100 µM; in the assay with OVCAR-4 ovarian, more than 100 µM; with SK-OV-3 ovarian, more than 100 µM; with HL-60(TB) leukemia, 31.1 µM. In addition, the TGI with ACHN renal is more than 100 µM; in the assay with M14 melanoma it was 48 µM; in the assay on NCI-H23 lung, 29.2 µM; in the assay with 786-0 renal it was more than 100 µM.
